Several values for one entry are separate records, joined by “and”; a condition that tells them apart may be missing. Equal values may be shown once.
Columns and labels:
BiP NBD [1] = target: T1, BiP NBD (Homo sapiens, UniProt P11021); test: In-cyclo NMR with ATP regeneration (E1) and phosphate removal (E2): hydrolysis rate, state populations, occupancy times; type: biochemical; parameters: His6 (N, cleaved yes); made in house; host or cells: E. coli BL21-(DE3)-Lemo, pET28a vector; settings: for khydr: Fig 3 f source data: replicates [1]-[3] and average; for cycle timing: Fig 4f source data: replicates [1]-[3] and average
T1 sequence (P11021 19-406): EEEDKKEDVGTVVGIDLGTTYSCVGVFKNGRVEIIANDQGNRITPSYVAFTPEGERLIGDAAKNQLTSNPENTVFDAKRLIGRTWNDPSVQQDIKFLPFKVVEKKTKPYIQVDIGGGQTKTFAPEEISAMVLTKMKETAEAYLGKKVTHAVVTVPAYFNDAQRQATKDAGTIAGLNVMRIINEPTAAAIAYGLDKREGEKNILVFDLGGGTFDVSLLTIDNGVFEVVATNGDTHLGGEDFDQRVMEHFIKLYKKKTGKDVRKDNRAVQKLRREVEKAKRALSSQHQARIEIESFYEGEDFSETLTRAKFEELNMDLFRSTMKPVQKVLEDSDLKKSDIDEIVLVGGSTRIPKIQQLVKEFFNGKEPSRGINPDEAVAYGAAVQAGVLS
Description: In order to create a stable steady-state condition, we implemented two enzymatic systems inside the NMR tube to convert ADP into ATP and to remove the free phosphate, respectively. The first enzyme (E1) is pyruvate kinase, at catalytic amounts, which combines phosphoenol pyruvate (PEP) and ADP to form ATP (Fig. 3a). […] The second enzyme (E2) is sucrose phosphorylase, at catalytic amounts, which catalyzes the conversion of sucrose and phosphate into α-D-glucose-1-phosphate and D-fructose. […] To distinguish this experiment from equilibrium experiments, and highlight the unique setup to control ATP, ADP and Pi levels simultaneously, we refer to this setup as the “in-cyclo” NMR experiment.
We then set out to determine the kinetic parameters of the functional cycle. The NMR signal intensities of each of the three detected states are proportional to their population in the steady state. We integrated 51 non-overlapping independent methyl groups to obtain the population ratio pDtotal/pT, including 7 non-overlapping independent methyl groups to obtain the subpopulation ratio pD·Pi/pD.
The macroscopic hydrolysis rate khydr is experimentally determined from monitoring the pyruvate production. From there, the reaction flux f of the functional cycle results as19 f=khydrNBD0 The inverse of the hydrolysis rate is the average length of the functional cycle T.20 T=khydr−1 The flux is maintained along the cycle, resulting in the equations21 f=kcatNBD^ATP 22 f=koff4+koff5⋅NBD^ADP⋅Pi 23 f=koff2NBD^ADP+koff3NBD^Pi 24 f=kon1NBD^apoATP−koff1NBD^ATP 25 koff2NBD^ADP=koff4NBD^ADP⋅Pi
All in-cyclo NMR experiments were recorded with BiP NBD samples [U-^2H, ^15N, ^12C], Met-[^13CH3]^ε, Val-[^13CH3/^12C^2H3]^cγ1/cγ2, Ile-[^13CH3]^δ1 in NMR buffer (25 mM HEPES, pH 7.5, 150 mM KCl and 10 mM MgCl2) at a concentration of BiP NBD 100 μM. The in-cyclo ATP regeneration system was composed of 5 units of pyruvate kinase (E1) from rabbit muscle ( ≈ 200 nM; Sigma-Aldrich) and the concentration of phosphoenolpyruvate (PEP- Sigma-Aldrich) was adjusted to maintain the system active for at least four hours ([PEP] = 10–100 mM). The in-cyclo phosphate removal system was composed of 5 units of recombinant sucrose phosphorylase (E2) ( ≈ 500 nM; Sigma-Aldrich) and the concentration of sucrose (Sigma-Aldrich) was adjusted to maintain the system active for at least four hours ([Sucrose] = 10–100 mM). This experimental setup was modified as described in the text by selectively including E1 and/or E2 depending on the purpose of the experiments. All the experiments were recorded at minimum as experimental triplicates.
The in-cyclo experiment was initiated by the addition of 5 mM ATP (Sigma-Aldrich) and allowed to equilibrate at a temperature of 37 °C for 5 min in the NMR spectrometer. After the equilibration time 2D [^13C,^1H]-HMQC spectra were recorded in interleaved mode with 1D ^1H NMR spectra. […] The same setup was used for the alternative experiments by including or excluding E1 and/or E2.

BiP NBD [2] = target: T1, BiP NBD; test: NMR experiment with MABA-ATP (no E1, no E2) and kinetic fit of the MABA-ATP/MABA-ADP functional cycle; type: biochemical; parameters: His6 (N, cleaved yes); made in house; host or cells: E. coli BL21-(DE3)-Lemo, pET28a vector; settings: for koff / kon / Kd: MABA-ATP instead of ATP; for Kd: T = 37°C; for species: Supplementary Fig 13b
Protocol: […] After the equilibration time 2D [^13C,^1H]-HMQC spectra were recorded in interleaved mode with 1D ^1H NMR spectra. […] The same setup was used for the alternative experiments by including or excluding E1 and/or E2. When E1 was not included, the ratio of the ATP/ADP NMR signals was used to monitor their relative concentrations.
(1 picture or pasted object on this page, not shown here)

## Nc1ncnc2c1ncn2[C@@H]1O[C@H](COP(=O)(O)OP(=O)(O)OP(=O)(O)O)[C@@H](O)[C@H]1O [ATP]
BiP NBD [1]; 100 μM BiP NBD, 5 mM ATP, 37 °C
  ATP consumption: 0.15 ± 0.01 mM/min
BiP NBD [1]
  khydr: 1.417 min⁻¹ and 1.507 min⁻¹ and 1.488 min⁻¹
  cycle timing: 42.34 s and 39.82 s and 40.31 s
BiP NBD [1]; mean
  khydr: 1.471 min⁻¹
  cycle timing: 41 s
BiP NBD [1]; from occupancy time of the T state
  catalytic ATP hydrolysis rate kcat = tT^−1: 0.067 s⁻¹
BiP NBD [1]; in-cyclo, no calcium
  average length of the functional cycle T = khydr^−1: 41 ± 2 s
BiP NBD [1]; in-cyclo, no calcium, 37 °C
  macroscopic hydrolysis rate khydr: 1.47 ± 0.05 min⁻¹

## O=P(O)(O)O [Pi]
BiP NBD [2]; reactions 1MABA, 2MABA, 3
  koff: 1 ± 0.3 s⁻¹
  kon: 3500 ± 500 M⁻¹ s⁻¹
BiP NBD [2]; reactions 1MABA, 2MABA, 3: release to apo NBD
  Kd: 280 ± 30 µM
BiP NBD [2]; reactions 4MABA, 5MABA
  koff: 0.043 s⁻¹
  kon: 120 ± 20 M⁻¹ s⁻¹
BiP NBD [2]; reactions 4MABA, 5MABA: release from NBD·MABA-ADP·Pi
  Kd: 360 ± 20 µM
BiP NBD [2]; time 4 min
  species: 350 µM
BiP NBD [2]; time 10 min
  species: 508 µM
BiP NBD [2]; time 16 min
  species: 626 µM
BiP NBD [2]; time 22 min
  species: 712 µM
BiP NBD [2]; time 28 min
  species: 800 µM
BiP NBD [2]; time 34 min
  species: 840 µM
BiP NBD [2]; time 40 min
  species: 889 µM
BiP NBD [2]; time 46 min
  species: 907 µM
BiP NBD [2]; time 52 min
  species: 929 µM
BiP NBD [2]; time 58 min
  species: 924 µM
BiP NBD [2]; time 64 min
  species: 932 µM
